# According to PMC12881670, “Investigation into ligand selectivity and bias at the formyl peptide receptor family” (The Journal of Pharmacology and Experimental Therapeutics, 2025):
# Where a SMILES comes first, the peptide text is derived from it. Where no end group is shown, it is not given here. [ ]: non-standard residue; d: D form. The star is where a group is joined. For = O=C*
# T1: Mm_Fpr1 (Mus musculus, UniProt P33766)
# T1 construct: expressed in transfected cells
# T1 sequence (P33766 1-364): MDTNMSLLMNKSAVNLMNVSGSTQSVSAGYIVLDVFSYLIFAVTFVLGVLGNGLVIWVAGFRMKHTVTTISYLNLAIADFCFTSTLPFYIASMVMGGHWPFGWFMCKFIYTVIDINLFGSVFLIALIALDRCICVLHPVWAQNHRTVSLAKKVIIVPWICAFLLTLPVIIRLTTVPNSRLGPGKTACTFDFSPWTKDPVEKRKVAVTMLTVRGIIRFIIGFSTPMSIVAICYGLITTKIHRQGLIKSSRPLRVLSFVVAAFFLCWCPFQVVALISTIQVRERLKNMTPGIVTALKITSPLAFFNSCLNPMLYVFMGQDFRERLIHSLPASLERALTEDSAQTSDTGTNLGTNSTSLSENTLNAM
# T2: Hs_FPR1 (Homo sapiens, UniProt P21462)
# T2 construct: expressed in transfected cells
# T2 sequence (P21462 1-350): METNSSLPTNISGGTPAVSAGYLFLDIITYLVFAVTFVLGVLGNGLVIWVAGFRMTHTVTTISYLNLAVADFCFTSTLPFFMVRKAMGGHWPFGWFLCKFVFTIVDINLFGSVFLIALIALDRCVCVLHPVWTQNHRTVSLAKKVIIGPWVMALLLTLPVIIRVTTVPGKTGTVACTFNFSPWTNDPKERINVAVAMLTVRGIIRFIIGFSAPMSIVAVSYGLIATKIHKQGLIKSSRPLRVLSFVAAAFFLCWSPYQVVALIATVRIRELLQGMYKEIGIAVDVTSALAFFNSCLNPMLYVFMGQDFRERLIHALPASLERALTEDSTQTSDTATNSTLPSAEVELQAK
# T3: Mm_Fpr2 (Mus musculus, UniProt O88536)
# T3 construct: expressed in transfected cells
# T3 sequence (O88536 1-351): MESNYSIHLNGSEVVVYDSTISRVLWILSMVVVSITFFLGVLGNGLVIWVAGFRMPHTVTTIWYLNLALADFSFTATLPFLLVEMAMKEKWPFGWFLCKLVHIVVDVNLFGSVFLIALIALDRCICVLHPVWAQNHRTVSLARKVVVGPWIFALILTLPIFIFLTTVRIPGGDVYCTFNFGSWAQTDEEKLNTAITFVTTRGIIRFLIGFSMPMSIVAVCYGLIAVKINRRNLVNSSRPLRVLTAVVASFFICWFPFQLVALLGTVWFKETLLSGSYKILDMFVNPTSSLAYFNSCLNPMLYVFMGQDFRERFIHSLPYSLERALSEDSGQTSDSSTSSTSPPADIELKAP
# T4: Hs_FPR2 (Homo sapiens, UniProt P25090)
# T4 construct: expressed in transfected cells
# T4 sequence (P25090 1-351): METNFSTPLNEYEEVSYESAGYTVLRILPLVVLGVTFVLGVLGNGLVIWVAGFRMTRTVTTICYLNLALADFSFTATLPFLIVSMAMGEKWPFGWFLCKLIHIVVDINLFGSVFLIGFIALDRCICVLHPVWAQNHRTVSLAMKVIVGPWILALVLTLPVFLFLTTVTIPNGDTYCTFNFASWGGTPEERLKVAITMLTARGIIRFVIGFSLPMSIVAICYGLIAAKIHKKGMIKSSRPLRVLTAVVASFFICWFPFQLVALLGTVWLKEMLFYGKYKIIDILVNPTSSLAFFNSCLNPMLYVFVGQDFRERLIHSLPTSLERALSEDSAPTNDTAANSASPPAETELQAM
# T5: FLAG-tagged human FPR2 (Hs_FPR2) (human, UniProt P25090 1-351)
# T5 sequence (looked up): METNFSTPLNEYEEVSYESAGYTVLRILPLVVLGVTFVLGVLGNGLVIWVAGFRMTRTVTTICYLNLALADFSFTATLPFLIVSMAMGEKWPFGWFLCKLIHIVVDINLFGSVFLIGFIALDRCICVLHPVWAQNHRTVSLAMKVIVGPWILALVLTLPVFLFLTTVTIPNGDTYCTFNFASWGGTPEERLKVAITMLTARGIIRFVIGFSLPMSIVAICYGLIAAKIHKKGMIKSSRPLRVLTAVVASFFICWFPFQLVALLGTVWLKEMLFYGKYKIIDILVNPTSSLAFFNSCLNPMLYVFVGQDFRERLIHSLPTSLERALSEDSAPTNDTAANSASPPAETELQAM
# T6: FLAG-tagged mouse Fpr1 (Mm_Fpr1) (mouse, UniProt P33766 1-364)
# T6 sequence (looked up): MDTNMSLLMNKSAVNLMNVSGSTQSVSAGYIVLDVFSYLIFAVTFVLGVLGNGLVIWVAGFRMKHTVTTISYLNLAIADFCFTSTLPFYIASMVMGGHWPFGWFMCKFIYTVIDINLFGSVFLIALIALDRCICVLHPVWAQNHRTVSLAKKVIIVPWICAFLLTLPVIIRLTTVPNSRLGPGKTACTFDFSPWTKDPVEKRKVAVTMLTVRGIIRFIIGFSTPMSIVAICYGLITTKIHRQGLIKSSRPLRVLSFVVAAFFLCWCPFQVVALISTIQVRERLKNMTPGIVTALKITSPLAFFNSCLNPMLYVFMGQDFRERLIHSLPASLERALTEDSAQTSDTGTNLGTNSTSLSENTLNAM
# T7: FLAG-tagged human FPR1 (Hs_FPR1) (human, UniProt P21462 1-350)
# T7 sequence (looked up): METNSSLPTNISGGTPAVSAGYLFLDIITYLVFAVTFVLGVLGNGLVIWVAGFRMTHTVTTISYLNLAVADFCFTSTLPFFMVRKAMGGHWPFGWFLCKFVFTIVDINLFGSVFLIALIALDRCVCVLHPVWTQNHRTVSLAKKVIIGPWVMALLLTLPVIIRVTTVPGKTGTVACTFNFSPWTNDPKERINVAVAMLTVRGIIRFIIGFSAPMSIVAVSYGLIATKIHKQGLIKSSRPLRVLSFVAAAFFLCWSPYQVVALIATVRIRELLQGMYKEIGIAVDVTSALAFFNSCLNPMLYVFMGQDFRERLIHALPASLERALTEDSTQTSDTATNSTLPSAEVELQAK
# T8: FLAG-tagged mouse Fpr2 (Mm_Fpr2) (mouse, UniProt O88536 1-351)
# T8 sequence (looked up): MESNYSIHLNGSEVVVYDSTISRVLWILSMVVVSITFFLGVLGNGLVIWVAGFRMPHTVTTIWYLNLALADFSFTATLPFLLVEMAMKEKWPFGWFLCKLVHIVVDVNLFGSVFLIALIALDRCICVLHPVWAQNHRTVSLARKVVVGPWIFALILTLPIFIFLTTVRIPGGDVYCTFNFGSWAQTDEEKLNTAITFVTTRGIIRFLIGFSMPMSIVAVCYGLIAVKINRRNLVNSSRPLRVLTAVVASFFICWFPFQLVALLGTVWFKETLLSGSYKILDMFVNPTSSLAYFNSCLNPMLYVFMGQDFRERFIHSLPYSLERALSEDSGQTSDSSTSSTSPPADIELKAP
# How the values were obtained:
# [1] = molecular target: T1, Mm_Fpr1; experiment: BRET receptor-RLuc8 interaction with Venus-mGsi; assay type: cell-based
# In short: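 Cells were transiently cotransfected with C-terminal RLuc8-tagged FPR and Venus-mGsi or YFP-Arrestin 3 (1:4), then replated at 24 h and cultured a further 24–48 h. After 30 min in HBSS, coelenterazine h (5 μM final) was added 5 min before compound, with a 10 min incubation at 37 °C. Background-subtracted acceptor/donor ratio (N-BRET) was fitted by 3-parameter log(agonist) regression.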
# [2] = molecular target: T1, Mm_Fpr1; experiment: Competition binding of fluorescent WKYMVm, flow cytometry
# Experimental: (§1) Mean cell fluorescence was then measured for 5000 cells by flow cytometry using either a BD FACScalibur or BD Attune.
# (§2) All data were analyzed using GraphPad Prism using the nonlinear regression log(agonist) versus response (3 parameters) function for all assays, except binding, which was analyzed using the One site-FitlogIC50 function. Bias calculations were carried out following IUPHAR guidelines as described,[27]^,[37] and data were presented as the Δ Activity ratio (Log[EmaxB/EC50B])-(Log[EmaxA/EC50A]).
# [3] = molecular target: T2, Hs_FPR1; experiment: as above; conditions: for Max Comp (%): maximum proportion of competition with 10 nM K(5/6-FAM)-WKYMVm
# Experimental: as §1, §2
# [4] = molecular target: T3, Mm_Fpr2; experiment: as above
# Experimental: as §1, §2
# [5] = molecular target: T4, Hs_FPR2; experiment: as above; conditions: for Max Comp (%): maximum proportion of competition with 10 nM K(5/6-FAM)-WKYMVm
# Experimental: as §1, §2
# [6] = test system: formyl peptide receptor family (Hs_FPR1, Hs_FPR2, Mm_Fpr1, Mm_Fpr2); experiment: Summary of main findings: receptor subtype selectivity and ligand bias across all readouts; set-up: species or system human and mouse
# Text: To determine ligand bias, a reference ligand is required, that is, “balanced” for the pathways tested.[37] […] We then used measurements of the activity ratio (Log (Emax/EC50)) for each receptor, ligand, and pathway in an attempt to observe any ligand bias (Fig. 6).
# [7] = molecular target: T5, FLAG-tagged human FPR2 (Hs_FPR2); experiment: cell-based or functional assay
# [8] = molecular target: T6, FLAG-tagged mouse Fpr1 (Mm_Fpr1); experiment: cell-based or functional assay
# [9] = molecular target: T7, FLAG-tagged human FPR1 (Hs_FPR1); experiment: cell-based or functional assay
# [10] = molecular target: T8, FLAG-tagged mouse Fpr2 (Mm_Fpr2); experiment: cell-based or functional assay
# [11] = maximum proportion of competition with 10 nM K(5/6-FAM)-WKYMVm, mean, ND = no competition observed
# [12] = mean, ND = no competition observed
# [13] = log of IC50, competition with 10 nM K(5/6-FAM)-WKYMVm, HEK293 stable cells, on ice 90 min, mean, ND = no competition observed
molecule,measurement,setting,value
CSCC[C@H](NC(=O)[C@H](Cc1ccc(O)cc1)NC(=O)[C@H](CCCCN)NC(=O)[C@@H](N)Cc1c[nH]c2ccccc12)C(=O)N[C@H](C(=O)N[C@H](CCSC)C(N)=O)C(C)C [WKYMVm],Emax,[1],109%
"CSCC[C@H](NC=O)C(=O)N[C@@H](CC(C)C)C(=O)N[C@@H](Cc1ccccc1)C(=O)N[C@@H](CCCCN)C(=O)O [fMLFK, fMet-Leu-Phe-Lys] (For-MLFK-OH)",IC50,[2],8260 nM
same,Max Comp (%),[2]; [11],72.44%
same,IC50,[3],586 nM
same,Max Comp (%),[3]; [12],63.28%
same,IC50,[4],828 nM
same,Max Comp (%),[4]; [11],30.81%
same,IC50,[5],1.47 nM
same,Max Comp (%),[5]; [12],14.72%
same,EC50,[1],9550 nM
same,Emax,[1],62.9%
LESIFRSLLFRVM [MMK1],Bias,"[6]; summary grade of ligand bias relative to WKYMVm, key not given",No
same,Notes,"[6]; summary of main findings, in words",Only activity at Hs_FPR2
same,Log IC50 (M),[3]; [13],−10.05 M
same,Max Comp (%),[3]; [12],6.82%
same,Log IC50 (M),[5]; [13],−5.88 M
same,Max Comp (%),[5]; [12],100%
WKYMV[dM] (the last residue is the D form; the bought peptide is probably also an amide (surmise); source: bought: Tocris) [WKYMVm],ERK1/2 phosphorylation (Western blot): Emax (% of 1 μM WKYMVm),[7],93.8%
same,ERK1/2 phosphorylation (Western blot): Emax (% of 1 μM WKYMVm),[8],102%
same,ERK1/2 phosphorylation (Western blot): Log EC50 (M),[8],-8.43 log M
same,ERK1/2 phosphorylation (Western blot): Emax (% of 1 μM WKYMVm),[9],104%
same,ERK1/2 phosphorylation (Western blot): Log EC50 (M),[9],-9.1 log M
same,ERK1/2 phosphorylation (Western blot): Emax (% of 1 μM WKYMVm),[10],118%
same,ERK1/2 phosphorylation (Western blot): Log EC50 (M),[10],-9.06 log M
